# Test system: MPNST cells lines (S462, S462TY, 26T, T265, SNF96.2)
# Assay: Cytotoxicity against MPNST cell lines
# Conditions: DMEM-based medium
# Text: For this reason, it was hypothesized that tumor cells that have activated RAS would have increased sensitivity to this compound. Malignant peripheral nerve sheath tumors (MPNSTs) arise in the population sporadically, and with very high frequency in patients with NF1 mutation. NF1 is a RAS suppressor, and therefore, tumors arising in the NF1-mutant background, have apriori activation of the RAS signaling pathway.
structure (smiles),measurement,value
"Cc1ccc(Nc2nc(N/N=C/c3c[nH]c4ccccc34)cc(N3CCOCC3)n2)cc1 [Example 3, (E)-4-(2-((1H-indol-3-yl)methylene)hydrazinyl)-6-morpholino-N-(p-tolyl)pyrimidin-2-amine]",sensitivity to compound-induced death,highly sensitive

# From patent US12030896B2, “PIKfyve inhibitors” (Mayo Foundation for Medical Education and Research, priority 2018, dated 2024)
